According to US20100298141A1, “SUBSTITUTED PYRIDINE N-OXIDE HERBICIDES” (E. I. DU PONT DE NEMOURS AND COMPANY, priority 2007, published 2010):

How the values were obtained:
morningglory = assay: Test A pre-/postemergence greenhouse test; assay type: in vivo, Ipomoea spp.; conditions: for Plant response rating, Morningglory: 0 to 100 scale where 0 is no effect and 100 is complete control; for Morningglory plant response rating: 0 to 100 scale
In short: (§1)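 Visual injury ratings, made relative to untreated controls roughly ten days after treatment, cover both preemergence and postemergence application. Compounds in a surfactant-containing non-phytotoxic solvent were sprayed onto the soil surface after sowing and, simultaneously, onto young plants at the one- to two-leaf stage.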

velvetleaf = assay: Test A pre-/postemergence greenhouse test; assay type: in vivo, Abutilon theophrasti; conditions: for Plant response rating, Velvetleaf: 0 to 100 scale where 0 is no effect and 100 is complete control; for Velvetleaf plant response rating: 0 to 100 scale
In short: as §1

rice = assay: Test C flooded paddy test; assay type: in vivo, Oryza sativa; conditions: Flood
In short: (§2)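 Greenhouse pots flooded to 3 cm above soil at time of treatment received compound via the water, which stayed at that level.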

barnyardgrass [1] = assay: Test A pre-/postemergence greenhouse test; assay type: in vivo, Echinochloa crus-galli; conditions: for Plant response rating, Barnyardgrass: 0 to 100 scale where 0 is no effect and 100 is complete control; for Barnyardgrass plant response rating: 0 to 100 scale
In short: as §1

redroot pigweed = assay: Test A pre-/postemergence greenhouse test; assay type: in vivo, Amaranthus retroflexus; conditions: for Plant response rating, Pigweed: 0 to 100 scale where 0 is no effect and 100 is complete control; for Pigweed plant response rating: 0 to 100 scale
In short: as §1

wheat = assay: Test A pre-/postemergence greenhouse test; assay type: in vivo, Triticum aestivum; conditions: for Plant response rating, Wheat: 0 to 100 scale where 0 is no effect and 100 is complete control; for Wheat plant response rating: 0 to 100 scale
In short: as §1

corn = assay: Test A pre-/postemergence greenhouse test; assay type: in vivo, Zea mays; conditions: for Plant response rating, Corn: 0 to 100 scale where 0 is no effect and 100 is complete control; for Corn plant response rating: 0 to 100 scale
In short: as §1

umbrella sedge = assay: Test C flooded paddy test; assay type: in vivo, Cyperus difformis; conditions: Flood
In short: as §2

duck salad = assay: Test C flooded paddy test; assay type: in vivo, Heteranthera limosa; conditions: Flood
In short: as §2

giant foxtail = assay: Test A pre-/postemergence greenhouse test; assay type: in vivo, Setaria faberi; conditions: for Plant response rating, Foxtail, Giant: 0 to 100 scale where 0 is no effect and 100 is complete control; for Foxtail, Giant plant response rating: 0 to 100 scale
In short: as §1

crabgrass = assay: Test A pre-/postemergence greenhouse test; assay type: in vivo, Digitaria sanguinalis; conditions: for Plant response rating, Crabgrass, Large: 0 to 100 scale where 0 is no effect and 100 is complete control; for Crabgrass, Large plant response rating: 0 to 100 scale
In short: as §1

barnyardgrass [2] = assay: Test C flooded paddy test; assay type: in vivo, Echinochloa crus-galli; conditions: Flood
In short: as §2

[3] = Postemergence, 500 g ai/ha, 0 is no effect, 100 is complete control
[4] = Preemergence, 125 g ai/ha, 0 no effect, 100 complete control
[5] = Preemergence, 500 g ai/ha, 0 no effect, 100 complete control
[6] = 62 g ai/ha, scale 0 to 100 (0 no effect, 100 complete control)
[7] = 250 g ai/ha, scale 0 to 100, 0 no effect, 100 complete control, 13 to 15 days
[8] = 62 g ai/ha, scale 0 to 100, 0 no effect, 100 complete control, 13 to 15 days

Compound | Plant response rating, Morningglory (morningglory; Postemergence, 125 g ai/ha) | Morningglory plant response rating (morningglory; [3]) | Morningglory plant response rating (morningglory; [4]) | Plant response rating, Morningglory (morningglory; Preemergence, 500 g ai/ha) | Plant response rating, Velvetleaf (velvetleaf; Postemergence, 125 g ai/ha) | Velvetleaf plant response rating (velvetleaf; [3]) | Velvetleaf plant response rating (velvetleaf; [4]) | Plant response rating, Rice (rice; [7]) | Plant response rating, Barnyardgrass (barnyardgrass [1]; Postemergence, 125 g ai/ha) | Barnyardgrass plant response rating (barnyardgrass [1]; [3]) | Barnyardgrass plant response rating (barnyardgrass [1]; [4]) | Plant response rating, Barnyardgrass (barnyardgrass [1]; Preemergence, 500 g ai/ha) | Plant response rating, Pigweed (redroot pigweed; Postemergence, 125 g ai/ha) | Pigweed plant response rating (redroot pigweed; [3]) | Pigweed plant response rating (redroot pigweed; [4]) | Plant response rating, Pigweed (redroot pigweed; Preemergence, 500 g ai/ha) | Plant response rating, Wheat (wheat; Postemergence, 125 g ai/ha) | Wheat plant response rating (wheat; [3]) | Wheat plant response rating (wheat; [4]) | Plant response rating, Corn (corn; Postemergence, 125 g ai/ha) | other results
Cn1nc(C(F)(F)F)c(CS(=O)(=O)c2ccc(Cl)c[n+]2[O-])c1OCC(F)(F)C(F)(F)F [Compound 97] | 0 | 0 | 0 | 20 | 0 | 30 | 0 | 30 | 20 | 70 | 10 | 90 | 0 | 20 | 30 | 30 | 0 | 30 | 0 | 0 | Velvetleaf plant response rating (velvetleaf; [5]): 0; Plant response rating, Rice (rice; [6]): 0; Wheat plant response rating (wheat; [5]): 0; Corn plant response rating (corn; [3]): 0; Corn plant response rating (corn; [4]): 0; Plant response rating, Corn (corn; Preemergence, 500 g ai/ha): 0; Plant response rating, Sedge, Umbrella (umbrella sedge; [6]): 0; Plant response rating, Sedge, Umbrella (umbrella sedge; [7]): 0; Plant response rating, Ducksalad (duck salad; [6]): 0; Plant response rating, Ducksalad (duck salad; [7]): 40; Plant response rating, Foxtail, Giant (giant foxtail; Postemergence, 125 g ai/ha): 30; Foxtail, Giant plant response rating (giant foxtail; [3]): 70; Foxtail, Giant plant response rating (giant foxtail; [4]): 70; Plant response rating, Foxtail, Giant (giant foxtail; Preemergence, 500 g ai/ha): 80; Plant response rating, Crabgrass, Large (crabgrass; Postemergence, 125 g ai/ha): 20; Crabgrass, Large plant response rating (crabgrass; [3]): 60; Crabgrass, Large plant response rating (crabgrass; [4]): 20; Plant response rating, Crabgrass, Large (crabgrass; Preemergence, 500 g ai/ha): 70; Plant response rating, Barnyardgrass (barnyardgrass [2]; [6]): 0; Plant response rating, Barnyardgrass (barnyardgrass [2]; [7]): 0
Cc1cc[n+]([O-])c([S+]([O-])Cc2c(C(F)(F)F)nn(CC(F)(F)F)c2Cl)c1 (stereo not shown) [Compound 48] | 30 | 50 | 40 | 80 | 0 | 40 | 0 | 25 | 40 | 70 | 50 | 90 | 50 | 60 | 70 | 100 | 0 | 50 | 20 | 0 | Plant response rating, Velvetleaf (velvetleaf; Preemergence, 500 g ai/ha): 60; Plant response rating, Rice (rice; [8]): 0; Plant response rating, Wheat (wheat; Preemergence, 500 g ai/ha): 80; Corn plant response rating (corn; [3]): 50; Corn plant response rating (corn; [4]): 0; Plant response rating, Corn (corn; Preemergence, 500 g ai/ha): 60; Plant response rating, Sedge, Umbrella (umbrella sedge; [7]): 50; Plant response rating, Ducksalad (duck salad; [8]): 0; Plant response rating, Ducksalad (duck salad; [7]): 25; Plant response rating, Foxtail, Giant (giant foxtail; Postemergence, 125 g ai/ha): 70; Foxtail, Giant plant response rating (giant foxtail; [3]): 80; Foxtail, Giant plant response rating (giant foxtail; [4]): 80; Plant response rating, Foxtail, Giant (giant foxtail; Preemergence, 500 g ai/ha): 90; Plant response rating, Crabgrass, Large (crabgrass; Postemergence, 125 g ai/ha): 50; Crabgrass, Large plant response rating (crabgrass; [3]): 70; Crabgrass, Large plant response rating (crabgrass; [4]): 70; Plant response rating, Crabgrass, Large (crabgrass; Preemergence, 500 g ai/ha): 90; Plant response rating, Barnyardgrass (barnyardgrass [2]; [8]): 0; Plant response rating, Barnyardgrass (barnyardgrass [2]; [7]): 0
